Measurements taken from the Kinase Knowledgebase extract (Sharma et al. 2016).
pIC50, pKd, pKi: −log10 of the molar value.

biological target: PIK3CG (human) (UniProt P48736); assay: Inhibition of PIK3CG Kinase Activity; details: not given
Sequence (P48736 whole entry, looked up): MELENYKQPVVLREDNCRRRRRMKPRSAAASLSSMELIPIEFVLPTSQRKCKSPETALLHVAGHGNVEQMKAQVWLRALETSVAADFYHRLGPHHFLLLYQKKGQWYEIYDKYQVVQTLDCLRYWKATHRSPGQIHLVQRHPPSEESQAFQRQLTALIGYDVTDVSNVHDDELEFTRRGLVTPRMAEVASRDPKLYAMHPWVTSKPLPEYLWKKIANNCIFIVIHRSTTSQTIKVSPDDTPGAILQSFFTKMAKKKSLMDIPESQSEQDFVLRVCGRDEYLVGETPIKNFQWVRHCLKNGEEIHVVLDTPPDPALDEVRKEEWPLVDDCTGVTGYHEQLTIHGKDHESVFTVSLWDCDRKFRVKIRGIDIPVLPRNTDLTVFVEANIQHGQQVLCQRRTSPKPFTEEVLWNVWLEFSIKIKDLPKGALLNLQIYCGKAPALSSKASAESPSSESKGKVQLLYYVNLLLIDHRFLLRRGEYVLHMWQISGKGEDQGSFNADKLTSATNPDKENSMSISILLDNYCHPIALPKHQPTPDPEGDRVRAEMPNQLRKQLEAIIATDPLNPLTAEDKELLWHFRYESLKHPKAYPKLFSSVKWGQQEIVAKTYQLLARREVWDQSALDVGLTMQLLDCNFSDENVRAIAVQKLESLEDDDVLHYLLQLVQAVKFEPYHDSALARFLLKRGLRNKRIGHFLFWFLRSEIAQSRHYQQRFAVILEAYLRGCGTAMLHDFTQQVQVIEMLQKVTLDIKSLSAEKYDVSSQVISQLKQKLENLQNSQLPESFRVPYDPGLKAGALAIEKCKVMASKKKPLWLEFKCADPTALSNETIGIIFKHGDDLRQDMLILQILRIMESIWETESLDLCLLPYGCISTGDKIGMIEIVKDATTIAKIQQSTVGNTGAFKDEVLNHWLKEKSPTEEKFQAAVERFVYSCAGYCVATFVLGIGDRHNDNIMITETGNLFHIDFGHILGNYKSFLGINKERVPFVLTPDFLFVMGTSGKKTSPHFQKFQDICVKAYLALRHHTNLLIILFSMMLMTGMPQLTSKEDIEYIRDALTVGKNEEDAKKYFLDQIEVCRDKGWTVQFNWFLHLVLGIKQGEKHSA

Row | pIC50 | pKi | pKd | Compound
1 | 5.38 |  |  | CCCn1c(C(=O)Nc2nnn[nH]2)c(-c2ccccc2)c2cc(OC)c(OC)cc21
2 | 7.70 |  |  | O=C1NC(=O)/C(=C/c2ccc3ncn(-c4ccc5c(c4)CCN5S(=O)(=O)CCCN4CCOCC4)c3n2)S1
3 | 8.70 |  |  | O=C1NC(=S)S/C1=C\c1ccc2ncnc(N3CCC(F)CC3)c2n1
4 | 6.99 |  |  | COc1cc2sc(C(=O)Nc3nn[nH]n3)c(O[C@H]3C[C@H](C)C[C@H](C)C3)c2cc1OC
5 | 6.29 |  |  | OCc1cccc(-c2nc(N3CCOCC3)c3cnn(C4CCNCC4)c3n2)c1
6 | 7.54 |  |  | O=C1NC(=O)/C(=C/c2ccc(-c3cc(F)cc(F)c3O)o2)S1
7 | 7.00 |  |  | COc1cc2sc(C(=O)Nc3nnn[nH]3)c(OC3CCCC[C@H]3C)c2cc1OC (stereo not given in full)
8 | 6.62 |  |  | COc1ccc(OC)c(Nc2nc3ccccc3nc2NS(=O)(=O)c2ccc3c(c2)sc(=O)n3C)c1
9 | 7.62 |  |  | COc1cc2c(O[C@@H]3CCC[C@@H](C)C3)c(C(=O)Nc3nn[nH]n3)sc2cc1C
10 | 7.19 |  |  | CC(=O)Nc1nc(C)c(-c2csc(NCCC(N)=O)n2)s1
11 | 5.84 |  |  | Oc1cccc(-c2nc(N3CCOCC3)c3[nH]cc(C4CCN(Cc5ccc(Cl)nc5)CC4)c3n2)c1
12 | 7.80 |  |  | Cc1cc(-c2sc(NC(=O)NCC(=O)N(C)C)nc2C)nc([S+](C)[O-])n1 (stereo not given)
13 |  | 5.30 |  | Cc1cc(NC(=O)CCNC(=O)Nc2cn3cc(Br)ccc3n2)no1
14 | > 6.70 |  |  | COc1ccc(-c2ccc3nc(N)cn3n2)cc1OC
15 | 7.57 |  |  | COc1cc(Nc2nc3ccccc3nc2NS(=O)(=O)c2ccc(CN(C)C)cc2)cc(OC)c1
16 | 7.49 |  |  | COc1cc2sc(C(=O)Nc3nnn[nH]3)c(OC3C[C@@H](C)C[C@@H](C)C3)c2cc1OC (stereo not given in full)

Row | pIC50 | pKi | pKd | Compound
17 | 7.25 |  |  | COc1ccc(OC)c(Nc2nc3ccccc3nc2NS(=O)(=O)c2cccnc2)c1
18 | > 6.70 |  |  | CC(C)(C)NS(=O)(=O)c1cncc(-c2ccc3nc(N)cn3n2)c1
19 |  | 6.24 |  | CC(C)n1nnc(CCNC(=O)Nc2cn3cc(-c4cnc5ccccc5c4)ccc3n2)n1
20 | 7.14 |  |  | COc1ccc(OC)c(Nc2nc3ncccc3nc2NS(=O)(=O)c2ccccc2)c1
21 | 7.17 |  |  | Cn1ncc2c(Nc3ccc(C(N)=O)cc3)nc(Nc3ccc(NC(=O)Nc4cccnc4)cc3)nc21
22 | 5.18 |  |  | CCn1c(C(=O)Nc2nnn[nH]2)c(-c2ccccc2)c2cc(OC)c(OC)cc21
23 | 7.52 |  |  | COc1cc(Nc2nc3ccccc3nc2NS(=O)(=O)c2cccc(C(=O)NCCCN(C)C)c2)cc(OC)c1
24 | 8.05 |  |  | COc1cc2c(O[C@H]3C[C@@H](C)CC(C)(C)C3)c(C(=O)Nc3nn[nH]n3)sc2cc1C
25 |  | 6.77 |  | CC(C)n1nnc(CCNC(=O)Nc2cn3cc(-c4cncc(F)c4)ccc3n2)n1
26 | 7.30 |  |  | Cc1nc(NC(=O)NCCC(=O)OC(C)(C)C)sc1-c1ccncc1
27 | 6.35 |  |  | COc1cc2sc(C(=O)Nc3nnn[nH]3)c(OCC3(C)COC3)c2cc1OC
28 | 8.14 |  | 8.19 | CC1(C)CCN(C(=O)c2ccc(NC(=O)Nc3ccc(-c4nc(O[C@H]5CCOC5)nc(N5CCOCC5)n4)cc3)cc2)CC1
29 | 7.44 |  |  | COc1cc2sc(C(=O)Nc3nnn[nH]3)c(OCC3CCCCCC3)c2cc1OC
30 | 6.37 |  |  | COc1ccc(OC)c(Nc2nc3ccccc3nc2NS(=O)(=O)c2cccc(C#N)c2)c1
31 | 7.10 |  |  | COc1ccc(OC)c(Nc2nc3ccccc3nc2NS(=O)(=O)c2cn(C)cn2)c1
32 | < 5.00 |  |  | Cc1cc(NCc2ccccc2)c2nc(N3CCOCC3)cc(=O)n2c1

Row | Compound | pIC50 | pKi | pKd
33 | CC(=O)Nc1nc(C)c(-c2csc(Nc3cccc(-c4nnn[nH]4)c3)n2)s1 | 8.05 |  | 
34 | Cc1[nH]c2ccc(Br)cc2c1C=C1Oc2cc(O)cc(O)c2C1=O | 5.65 |  | 
35 | CCN(CC)C(C)=C1C(=O)O[C@H](COC)[C@@]2(C)C1=C(O)C(=O)C1=C2[C@H](OC(C)=O)C[C@]2(C)C(=O)CC[C@@H]12 | 7.10 |  | 
36 | COC[C@H]1OC(=O)c2coc3c2[C@@]1(C)C1=C(C3=O)[C@@H]2CCC(=O)[C@@]2(C)C[C@H]1O | 7.59 |  | 

same assay, conditions: concentration not given here

Row | inhibition [%] | Compound
37 | 13 | O=C1NC(=O)/C(=C/c2ccc(-c3ccc4ccccc4n3)o2)S1

biological target: PIK3CA (human) (UniProt P42336); assay: Assessment of PIK3CA Kinase Activity; details: not given
Sequence (P42336 whole entry, looked up): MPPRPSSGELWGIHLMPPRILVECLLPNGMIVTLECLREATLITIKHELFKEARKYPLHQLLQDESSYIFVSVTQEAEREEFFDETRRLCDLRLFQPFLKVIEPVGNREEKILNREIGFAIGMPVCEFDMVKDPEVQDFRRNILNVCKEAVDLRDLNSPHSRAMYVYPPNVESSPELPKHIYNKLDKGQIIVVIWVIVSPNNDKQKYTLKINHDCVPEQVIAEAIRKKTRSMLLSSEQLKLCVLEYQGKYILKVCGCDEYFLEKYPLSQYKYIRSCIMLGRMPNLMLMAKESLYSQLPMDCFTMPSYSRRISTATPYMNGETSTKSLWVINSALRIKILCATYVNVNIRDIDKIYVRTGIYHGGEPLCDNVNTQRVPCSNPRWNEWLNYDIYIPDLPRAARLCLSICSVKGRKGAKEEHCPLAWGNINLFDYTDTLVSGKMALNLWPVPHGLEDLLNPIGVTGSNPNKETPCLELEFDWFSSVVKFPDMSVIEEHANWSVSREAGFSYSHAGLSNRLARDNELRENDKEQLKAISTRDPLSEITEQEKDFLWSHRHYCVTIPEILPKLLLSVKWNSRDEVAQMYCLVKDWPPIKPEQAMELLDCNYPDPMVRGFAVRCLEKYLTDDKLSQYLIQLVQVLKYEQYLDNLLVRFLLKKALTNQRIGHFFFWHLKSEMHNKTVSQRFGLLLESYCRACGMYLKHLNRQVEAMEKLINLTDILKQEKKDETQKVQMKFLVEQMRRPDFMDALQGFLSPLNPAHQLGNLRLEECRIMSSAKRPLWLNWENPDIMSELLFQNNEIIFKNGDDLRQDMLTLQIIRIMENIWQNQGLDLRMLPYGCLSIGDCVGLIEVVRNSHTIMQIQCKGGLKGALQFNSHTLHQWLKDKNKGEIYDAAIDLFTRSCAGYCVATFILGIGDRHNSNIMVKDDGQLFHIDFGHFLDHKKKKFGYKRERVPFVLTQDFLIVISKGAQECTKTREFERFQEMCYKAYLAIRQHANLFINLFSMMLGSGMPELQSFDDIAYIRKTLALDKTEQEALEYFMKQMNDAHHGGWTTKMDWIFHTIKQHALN

Row | pIC50 | Compound
38 | 7.00 | O=C(Nc1cccc(-c2cc(N3CCOCC3)nc(-c3cccc(O)c3)n2)c1)C1CCCNC1 (stereo not given)
39 | 6.08 | Cc1nc(N)cc(n1)C2=C(Nc3cc[nH]n3)NC4=N2N=CC=C4
40 | 7.42 | Cc1ncnc(N2CCC(C)(O)CC2)c1C#Cc1ccc(N)nc1
41 | 7.00 | NCC(=O)N1CCN(c2cc(N3CCOCC3)nc(-n3c(C(F)F)nc4ccccc43)n2)CC1
42 | 7.30 | CCc1ncnc(N2CCC(O)(CC)CC2)c1C#Cc1ccc(N)nc1
43 | 5.71 | CC(C)(C)COC(=O)NCc1ccc(NC(=O)Nc2ccc(-c3nc(CS(C)(=O)=O)cc(N4CC5CCC(C4)O5)n3)cc2)cc1
44 | 6.52 | OCc1cccc(-c2cc(-n3c(C(F)F)nc4ccccc43)nc(N3CCOCC3)n2)c1
45 | 6.60 | CN(C(=O)c1cc2c(s1)-c1ccccc1OC2)c1ccccc1F
46 | 6.70 | NCCC1CCN(c2nc(N3CCOCC3)cc(-n3c(C(F)F)nc4ccccc43)n2)CC1
47 | 5.36 | CCNC(=O)Nc1ccc(-c2nc(N3CCO[C@H](C)C3)c3cnn(C4CCN(C(=O)OCC)CC4)c3n2)cc1
48 | 7.00 | NCC(=O)N1CC=C(c2cc(N3CCOCC3)nc(-n3c(C(F)F)nc4ccccc43)n2)CC1
49 | < 4.00 | CS(=O)(=O)Cc1cc(N2CCOCC2)nc(-c2ccc(NC(=O)c3ccno3)cc2)n1
50 | 7.70 | COc1cccc2c1nc(C(F)F)n2-c1nc(N2CCOCC2)cc(N2CCN(C(=O)CN)CC2)n1
51 | 7.74 | CCOC(=O)N1CCC(n2ncc3c(N4CCO[C@@H](C)C4)nc(-c4ccc(NC(=O)Nc5ccncc5)cc4)nc32)CC1

Row | Compound | pIC50
52 | O=C(Nc1ccc(F)cc1)Nc1ccc(-c2nc(N3CCOCC3)nc(N3C4CCC3COC4)n2)cc1 | 7.41

biological target: PIK3CA (human) (UniProt P42336); assay: Inhibition of PIK3CA Kinase Activity; details: not given

Row | pIC50 | Compound
53 | 6.47 | O=C1NC(=O)/C(=C/c2ccc(-c3cc(F)cc(F)c3O)o2)S1
54 | 6.40 | Oc1cccc(-c2nc(N3CCOCC3)c3[nH]cc(C4CCN(Cc5ccc(Cl)nc5)CC4)c3n2)c1
55 | 9.00 | Cn1ncc2c(Nc3ccc(C(N)=O)cc3)nc(Nc3ccc(NC(=O)Nc4cccnc4)cc3)nc21

Row | Compound | pIC50
56 | Cc1[nH]c2ccc(Br)cc2c1C=C1Oc2cc(O)cc(O)c2C1=O | 6.75

biological target: ROCK2 (human) (UniProt O75116); assay: Inhibition of ROCK2 Kinase Activity; details: not given
Sequence (O75116 whole entry, looked up): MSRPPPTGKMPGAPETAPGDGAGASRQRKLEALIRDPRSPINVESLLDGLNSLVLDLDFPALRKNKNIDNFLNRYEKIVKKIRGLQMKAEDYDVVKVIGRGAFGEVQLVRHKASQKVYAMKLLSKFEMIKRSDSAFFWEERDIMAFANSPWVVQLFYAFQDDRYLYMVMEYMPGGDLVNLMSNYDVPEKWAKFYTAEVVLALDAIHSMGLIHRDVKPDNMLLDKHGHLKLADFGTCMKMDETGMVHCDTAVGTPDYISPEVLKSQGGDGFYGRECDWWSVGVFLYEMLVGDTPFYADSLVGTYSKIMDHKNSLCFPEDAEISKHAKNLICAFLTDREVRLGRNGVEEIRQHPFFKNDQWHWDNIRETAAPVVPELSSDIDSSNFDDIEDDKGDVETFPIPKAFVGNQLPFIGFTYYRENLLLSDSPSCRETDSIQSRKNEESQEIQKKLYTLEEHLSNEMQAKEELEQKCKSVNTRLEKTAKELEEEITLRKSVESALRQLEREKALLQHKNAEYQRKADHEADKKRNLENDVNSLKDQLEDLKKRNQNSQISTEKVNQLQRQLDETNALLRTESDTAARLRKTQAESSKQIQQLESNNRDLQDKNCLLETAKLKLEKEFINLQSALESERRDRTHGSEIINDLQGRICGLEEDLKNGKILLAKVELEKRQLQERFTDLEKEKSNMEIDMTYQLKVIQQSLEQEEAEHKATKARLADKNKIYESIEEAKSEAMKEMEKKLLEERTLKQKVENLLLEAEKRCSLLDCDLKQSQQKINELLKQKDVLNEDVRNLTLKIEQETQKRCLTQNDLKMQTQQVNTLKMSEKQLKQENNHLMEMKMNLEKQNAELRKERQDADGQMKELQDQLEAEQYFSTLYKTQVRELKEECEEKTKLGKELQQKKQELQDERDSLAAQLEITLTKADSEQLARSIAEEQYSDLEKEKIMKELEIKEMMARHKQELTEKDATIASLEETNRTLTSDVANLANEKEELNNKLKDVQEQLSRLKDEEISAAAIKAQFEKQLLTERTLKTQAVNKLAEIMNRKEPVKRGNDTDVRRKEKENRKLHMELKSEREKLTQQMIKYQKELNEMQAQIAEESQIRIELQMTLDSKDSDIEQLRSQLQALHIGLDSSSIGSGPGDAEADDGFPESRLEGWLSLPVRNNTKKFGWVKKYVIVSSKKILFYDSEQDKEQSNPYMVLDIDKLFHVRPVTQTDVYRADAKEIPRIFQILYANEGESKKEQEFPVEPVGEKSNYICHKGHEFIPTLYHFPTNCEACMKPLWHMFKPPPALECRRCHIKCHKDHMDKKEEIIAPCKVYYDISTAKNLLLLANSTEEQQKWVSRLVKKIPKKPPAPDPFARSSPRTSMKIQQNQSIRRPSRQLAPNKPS

Row | pIC50 | pKi | Compound
57 | 7.00 |  | O=C([C@H](O)c1cccc(Cl)c1)N1CCN(c2ccc3[nH]ncc3c2)CC1
58 | 8.15 |  | Nc1nc(Nc2ccc(Cc3ccnc4[nH]ccc34)c(F)c2)cc(C(F)(F)F)n1
59 | 8.22 |  | Nc1nc(Nc2cc(F)c(Sc3ccncc3)c(Cl)c2)cc(N2C[C@H]3CCCN[C@H]3C2)n1
60 |  | 6.52 | C[C@@H](N)[C@]1(C)CC[C@@H](C(=O)Nc2ccncc2)CC1
61 | > 9.00 |  | COc1cccc(CN(CCN(C)C)C(=O)c2nc3ccc(-c4cn[nH]c4)cc3s2)c1
62 | 8.00 |  | COc1cccc(CNC(=O)Nc2nc(-c3ccncc3)cs2)c1
63 | 7.72 |  | O=C(NCc1ccc(F)cc1)Nc1nc(-c2ccncc2)cs1
64 | 7.00 |  | Nc1nc(Nc2ccc(Oc3ccc4cn[nH]c4c3)c(F)c2)cc(-c2ccncc2)n1
65 |  | 8.20 | c1cc2ccc(CN3CCC[C@@H](Nc4ccc5[nH]ncc5c4)C3)cc2[nH]1
66 | 7.15 |  | Nc1nc(Nc2ccc(Sc3ccncc3)c(F)c2)cc(Oc2cccc(Cl)c2)n1
67 | > 7.00 |  | NCC1(c2ccc(Cl)cc2)CCN(c2ncnc3[nH]ccc23)CC1

Row | Compound | pIC50 | pKi
68 | Nc1nc(Nc2ccc(Sc3ccncc3)c(F)c2)cc(N2C[C@H]3CCCN[C@H]3C2)n1 | 7.96 | 
69 | OC[C@@H](O)COc1cccc(CN2CCC[C@H](Nc3ccc4[nH]ncc4c3)C2)c1 | 6.49 | 

biological target: PIK3CA (human) (UniProt P42336); assay: Enzyme Assay; details: not given

Row | pIC50 | pKd | Compound
70 | 6.21 |  | COCCCNC(=O)c1cn2cc(-c3cccnc3)nc(N3CCOCC3)c2n1
71 | 5.38 |  | CCN1CC(C)(C)Oc2nc(N3CC4CCC(C3)O4)nc(-c3ccc(NC(=O)Nc4ccn(C)n4)cc3)c2C1=O
72 | 5.84 |  | CCN1CC(C)(C)Oc2nc(N3CCOC[C@@H]3C)nc(-c3ccc(NC(=O)Nc4ccc(C)cn4)cc3)c2C1=O
73 |  | 7.33 | Cc1nc(-c2cnc3c(C)cc(-c4cncc(NS(=O)(=O)c5ccccc5)c4)cn23)no1
74 | < 5.00 |  | CCN1CC(C)(C)Oc2nc(N3CC4CCC(C3)O4)nc(-c3ccc(NC(=O)Nc4ccnc(N5CCC(F)(F)CC5)c4)c(F)c3)c2C1=O
75 | < 5.00 |  | CCN1CC(C)(C)Oc2nc(N3CC4CCC(C3)O4)nc(-c3ccc(NC(=O)N[C@@H](C)CO)c(F)c3)c2C1=O
76 | 6.97 |  | CS(=O)(=O)N1CC2CCC(C1)N2c1cn2cc(-c3cnc(N)nc3)nc(N3CCOCC3)c2n1
77 | < 5.00 |  | CN1CC(C)(C)Oc2nc(N3CC4CCC(C3)O4)nc(-c3ccc(NC(=O)Nc4ccc(N5CC6CCC(C5)O6)nc4)c(F)c3)c2C1=O
78 | 6.00 to 7.00 |  | COc1ncc(-c2cn3cc(CN4CCN(S(C)(=O)=O)CC4)nc3c(N3CCOCC3)n2)cn1
79 |  | 8.11 | Cc1nc(-c2cnc3c(F)cc(-c4cncc(NS(=O)(=O)c5ccccc5)c4)cn23)no1
80 | 5.25 |  | CCN1CC(C)(C)Oc2nc(N3[C@@H]4CC[C@H]3COC4)nc(-c3ccc(NC(=O)Nc4ccncc4F)cc3)c2C1=O
81 | 6.00 |  | C[C@@H]1COC[C@H](C)N1c1nc(Oc2ccc(C(=O)N(C)C)cc2F)nc(-c2cnc(N)s2)n1
82 | < 5.00 |  | CCN1CC(C)(C)Oc2nc(N3CC4CCC(C3)O4)nc(-c3ccc(NC(=O)Nc4cnccn4)cc3)c2C1=O
83 | 6.53 |  | CN(C)CCCNC(=O)c1cn2cc(-c3cccnc3)nc(N3CCOCC3)c2n1
84 | 6.74 |  | O=C(c1cn2cc(-c3cccc4[nH]ncc34)nc(N3CCOCC3)c2n1)N1CCNCC1
85 |  | 5.91 | COc1cc(-c2cncc(NS(=O)(=O)c3ccccc3)c2)cn2c(-c3noc(C)n3)cnc12
86 | > 6.00 |  | CN(C)C(=O)c1ccc(Nc2nc(-c3ccc(N)nc3)nc(N3CCOCC3)n2)cc1
87 | 7.80 |  | CN1CCN(c2cnc3ccc(-c4cnc(N)c(S(=O)(=O)N(C)C)c4)cc3n2)CC1
88 | < 5.00 |  | COCCN1CC(C)(C)Oc2nc(N3CC4CCC(C3)O4)nc(-c3ccc(NC(=O)Nc4ccon4)cc3)c2C1=O
89 |  | 6.37 | Cc1nc(-c2cnc3c(Cl)cc(-c4cncc(NS(=O)(=O)c5ccccc5)c4)cn23)no1
90 | 7.49 |  | COc1ncc(-c2ccc3nnc(C#CC(C)(C)O)n3n2)cc1NS(=O)(=O)c1ccc(F)cc1
91 | 5.22 |  | C[C@@H]1COC[C@@H](C)N1c1nc(Oc2ccc(C(=O)N(C)C)cc2)nc(-c2cnc(N)s2)n1
92 | 6.00 to 7.00 |  | COc1cccc(-c2cn3c(I)c(C)nc3c(N3CCOCC3)n2)c1
93 | 6.00 to 7.00 |  | CS(=O)(=O)N1CCN(c2cnc3c(N4CCOCC4)nc(-c4cccc(O)c4)cn23)CC1

Row | Compound | pIC50 | pKd
94 | C=CC(=O)N1CCC[C@@H](n2nc(-c3ccc(Oc4ccccc4)cc3)c3c(N)ncnc32)C1 | < 5.00 | 
